US20240228446A1, “PREPARATION METHOD FOR BICYCLIC COMPOUND AND APPLICATION AS ANTIFUNGAL AGENT” (priority 2021, published 2024)
Converted amounts (≈) assume the structure as drawn.

Legend:
[1] = tested on: Aspergillus fumigatus ATCC MYA-4609; assay: Minimal inhibitory concentration (MIC) test on fungal growth (CLSI M38, Aspergillus); assay type: cell-based; settings: lowest concentration inhibiting Aspergillus by 100%, 35° C., 48 hours, RPMI1640; for MIC: Aspergillus fumigatus, read-out: MIC Aspergillus fumigatus ATCC MYA-4609
Method: (§1) • RPMI1640 medium: Brand: Gibco, article number: 31800-014 • Sabouraud dextrose agar (SDA): Brand: Hope Bio, article number: HB0253-81 • Voriconazole: Brand: Adamas, article number: 22105A • Amphotericin B: Brand: AbCam, article number: ab141199
(§2) MIC test was conducted in accordance with the guidelines and requirements of CLSI M27 (for yeasts) and M38 (for Aspergillus).
(§3) Strain preparation: The strains were inoculated 1 day in advance by streaking on SDA plates with glycerol strains stored at −80° C. The strains were cultured at 35° C. and 40 to 60% humidity for 18 to 24 hours. Streak inoculation of Aspergillus fumigatus and Cryptococcus neoformans was required to be done 3 days and 2 days in advance, respectively.
(§4) Preparation of culture medium and compounds: The liquid culture medium RPMI was prepared with pure water, and 0.165 mol/L MOPS was added to adjust the pH to 7.0. The mixture was filtered with a 0.22 μm-membrane filter, sterilized, and stored at 4° C. (no more than 3 months). 0.85% physiological saline was sterilized at 121° C. for 30 min and then stored at room temperature (no more than 1 week). The compounds were dissolved in DMSO to 12.8 mg/mL and stored at −20° C.
For Aspergillus, 5 mL of physiological saline was added to cover the mycelium, and the spores were gently scraped off with a spreader. The spore suspension was then transferred to a sterile test tube. An appropriate amount of spore suspension was taken and counted under a microscope using a hemocytometer. Spore concentration was adjusted to approximately 0.4 to 5×10^4 spores/mL using RPMI1640 medium.
(§5) The compound was diluted to the highest 800 μg/mL (or 400 μg/mL) with DMSO, and a 10-step 2-fold gradient dilution was performed, resulting in 11 concentrations. 2 μL of the gradient-diluted compound was transferred to the corresponding wells of a 96-well plate, and then 198 μL of the inoculum was transferred to the test plate. The plate was incubated at 35° C. for 24 hours (Aspergillus fumigatus and Cryptococcus neoformans were incubated for 48 and 72 hours, respectively).
(§6) After the incubation, the growth of the fungi was visually observed. The lowest concentration of the compound that inhibited the growth of yeast by 50% (inhibited Aspergillus by 100%) was defined as the minimum inhibitory concentration (MIC, μg/mL). A magnifying glass or reading at OD530 nm could be used to assist in determining the MIC. Photos were taken of the test plates for record keeping.

[2] = tested on: Candida albicans ATCC MYA-2876; assay: Minimal inhibitory concentration (MIC) test on fungal growth (CLSI M27, yeasts); assay type: cell-based; settings: lowest concentration inhibiting growth of yeast by 50%, 35° C., 24 hours, RPMI1640; for MIC: Candida albicans, read-out: MIC Candida albicans ATCC MYA-2876
Method: as §1, §2, §3, §4
For yeast, 3 to 5 colonies were selected from the SDA plate on the day of testing and fully suspended in 5 mL of sterilized 0.85% physiological saline. The turbidity of the bacterial suspension was measured with a turbidimeter, and the turbidity was adjusted to approximately 0.2. The bacterial suspension was 50-fold and 20-fold (1000-fold in total) diluted in RPMI1640 medium, respectively, to serve as the inoculum. The final inoculum concentration was 500 to 2500 CFU/mL.
as §5, §6

MIC [1] [µg/mL]	MIC [2] [µg/mL]	MIC Aspergillus fumigatus ATCC MYA-4609 [1] [µg/mL]	MIC Candida albicans ATCC MYA-2876 [2] [µg/mL]	SMILES
4 (≈ 8.03 µM)	0.0078 (≈ 0.0156 µM)			OC(Cn1cnnn1)(c1ccc(F)cc1F)C(F)(F)C12CC(c3ccc(OCC(F)F)cc3)(C1)C2 (stereo not shown) [Compound 22]
1 (≈ 2.01 µM)	≤ 0.0039			OC(Cn1cncn1)(c1ccc(F)cc1F)C(F)(F)C12CC(c3ccc(OCC(F)F)cc3)(C1)C2 (stereo not shown) [Compound 23]
2 (≈ 3.99 µM)	0.0078 (≈ 0.0156 µM)			OC(Cn1cncn1)(c1ccc(F)cc1F)C(F)(F)C12CC(c3ccc(OC(F)(F)F)cc3)(C1)C2 (stereo not shown) [Compound 25]
0.5 (≈ 1.13 µM)	≤ 0.0039			N#Cc1ccc(C23CC(C(F)(F)[C@](O)(Cn4cncn4)c4ccc(F)cc4F)(C2)C3)cc1 [Compound 27A]
1 (≈ 2.26 µM)	≤ 0.0039			N#Cc1ccc(C23CC(C(F)(F)C(O)(Cn4cncn4)c4ccc(F)cc4F)(C2)C3)cc1 (stereo not shown) [Compound 27]
1 (≈ 2.26 µM)	≤ 0.0039			N#Cc1ccc(C23CC(C(F)(F)[C@](O)(Cn4cncn4)c4cc(F)ccc4F)(C2)C3)cc1 [Compound 29A]
2 (≈ 4.52 µM)	≤ 0.0039			N#Cc1ccc(C23CC(C(F)(F)C(O)(Cn4cncn4)c4cc(F)ccc4F)(C2)C3)cc1 (stereo not shown) [Compound 29]
		1 (≈ 1.98 µM)	≤0.0039	CNC(=O)COc1ccc(C23CC(C(F)(F)[C@](O)(Cn4cncn4)c4ccc(F)cc4F)(C2)C3)cc1 [Compound 35A]
2 (≈ 3.96 µM)	≤ 0.0039			CNC(=O)COc1ccc(C23CC(C(F)(F)C(O)(Cn4cncn4)c4ccc(F)cc4F)(C2)C3)cc1 (stereo not shown) [Compound 35]
4 (≈ 7.9 µM)	0.0078 (≈ 0.0154 µM)			CC(C)(O)COc1ccc(C23CC(C(F)(F)[C@](O)(Cn4cnnn4)c4ccc(F)cc4F)(C2)C3)cc1 [Compound 36A]
8 (≈ 15.8 µM)	≤ 0.0039			CC(C)(O)COc1ccc(C23CC(C(F)(F)C(O)(Cn4cnnn4)c4ccc(F)cc4F)(C2)C3)cc1 (stereo not shown) [Compound 36]
	0.06 (≈ 0.105 µM)			CS(=O)(=O)CC(O)COc1ccc(C23CC(C(F)(F)C(O)(Cn4cnnn4)c4ccc(F)cc4F)(C2)C3)cc1 (stereo not shown) [Compound 141]
	0.06 (≈ 0.109 µM)			OC(COc1ccc(C23CC(C(F)(F)C(O)(Cn4cnnn4)c4ccc(F)cc4F)(C2)C3)cc1)C1(O)COC1 (stereo not shown) [Compound 146]
	0.016 (≈ 0.0317 µM)			OC1(COc2ccc(C34CC(C(F)(F)C(O)(Cn5cnnn5)c5ccc(F)cc5F)(C3)C4)cc2)CC1 (stereo not shown) [Compound 147]
	0.016 (≈ 0.0312 µM)			N#CC1(COc2ccc(C34CC(C(F)(F)C(O)(Cn5cnnn5)c5ccc(F)cc5F)(C3)C4)cc2)CC1 (stereo not shown) [Compound 148]
	0.03 (≈ 0.0576 µM)			OC1(COc2ccc(C34CC(C(F)(F)C(O)(Cn5cnnn5)c5ccc(F)cc5F)(C3)C4)cc2)COC1 (stereo not shown) [Compound 150]
	0.0078 (≈ 0.0146 µM)			OC(COc1ccc(C23CC(C(F)(F)C(O)(Cn4cnnn4)c4ccc(F)cc4F)(C2)C3)cc1)C1COC1 (stereo not shown) [Compound 152]
	0.0078 (≈ 0.0156 µM)			OC(Cn1cnnn1)(c1ccc(F)cc1F)C(F)(F)C12CC(c3ccc(COC(F)F)cc3)(C1)C2 (stereo not shown) [Compound 159]
	0.016 (≈ 0.0302 µM)			OC(Cn1cnnn1)(c1ccc(F)cc1F)C(F)(F)C12CC(c3ccc(COCC(F)(F)F)cc3)(C1)C2 (stereo not shown) [Compound 160]
	0.016 (≈ 0.0302 µM)			OC(Cn1cnnn1)(c1ccc(F)cc1F)C(F)(F)C12CC(c3ccc(CNCC(F)(F)F)cc3)(C1)C2 (stereo not shown) [Compound 161]
	0.03 (≈ 0.0581 µM)			CN1CCN(c2ccc(C34CC(C(F)(F)C(O)(Cn5cnnn5)c5ccc(F)cc5F)(C3)C4)cc2)CC1 (stereo not shown) [Compound 162]
	0.0078 (≈ 0.0142 µM)			O=S1(=O)CCC(c2ccc(C34CC(C(F)(F)C(O)(Cn5cnnn5)c5ccc(F)cc5F)(C3)C4)cc2)CC1 (stereo not shown) [Compound 163]
	0.06 (≈ 0.11 µM)			O[C@@H](COc1ccc(C23CC(C(F)(F)[C@](O)(Cn4cnnn4)c4cc(F)ccc4F)(C2)C3)cc1)C(F)(F)F [Compound 166A]
